Laboratory results: ChEMBL document CHEMBL1124526, “Synthesis and biological evaluation of certain 3-beta-D-ribofuranosyl-1,2,4-triazolo[4,3-b)pyridazines related to formycin prepared via ring closure of pyridazine precursors” (J Med Chem, 1989)
Calls of active or inactive are those of the source.

Legend:
Homo sapiens = organism: Homo sapiens; experiment: In vitro ability to inhibit the growth of WI-L2 human B-lymphoblastic leukemia; Compound was inactive at 100 uM and 1000 uM respectively.; type: functional
Semliki Forest virus = experiment: In vitro antiviral activity against semliki forest virus (original); Compound was inactive at 100 uM and 1000 uM respectively.; type: functional, organism-based
L1210 = experiment: In vitro ability to inhibit the growth of L1210 murine lymphocytic leukemia; Compound was inactive at 100 uM and 1000 uM respectively.; type: functional, cell-based; settings: Mus musculus
CCRF-CEM = experiment: In vitro ability to inhibit the growth of CCRF-CEM human T-lymphoblastic leukemia; Compound was inactive at 100 uM and 1000 uM respectively.; type: functional, cell-based
Visna-maedi virus = experiment: In vitro antiviral activity against vinsa virus (1513); Compound was inactive at 100 uM and 1000 uM respectively.; type: functional, organism-based
Human adenovirus 2 = experiment: In vitro antiviral activity against adeno virus type 2; Compound was inactive at 100 uM and 1000 uM respectively.; type: functional, organism-based
Human respirovirus 3 = experiment: In vitro antiviral activity against parainfluenza virus type 3 (C243); Compound was inactive at 100 uM and 1000 uM respectively.; type: functional, organism-based
Influenza A virus = experiment: In vitro antiviral activity against influenza A virus (chile); Compound was inactive at 100 uM and 1000 uM respectively.; type: functional, organism-based
Human rhinovirus 1A = experiment: In vitro antiviral activity against rhino virus type 1-A (2060); Compound was inactive at 100 uM and 1000 uM respectively.; type: functional, organism-based
Human alphaherpesvirus 2 = experiment: In vitro antiviral activity against herpes simplex virus type 2 (MS); Compound was inactive at 100 uM and 1000 uM respectively.; type: functional, organism-based

Measured: Activity

COc1ccc2nnc([C@@H]3O[C@H](CO)[C@@H](O)[C@H]3O)n2n1
inactive: Homo sapiens inactive at 100 uM and 1000 uM respectively | Semliki Forest virus inactive at 100 uM and 1000 uM respectively | L1210 inactive at 100 uM and 1000 uM respectively | CCRF-CEM inactive at 100 uM and 1000 uM respectively | Visna-maedi virus inactive at 100 uM and 1000 uM respectively | Human adenovirus 2 inactive at 100 uM and 1000 uM respectively | Human respirovirus 3 inactive at 100 uM and 1000 uM respectively | Influenza A virus inactive at 100 uM and 1000 uM respectively | Human rhinovirus 1A inactive at 100 uM and 1000 uM respectively | Human alphaherpesvirus 2 inactive at 100 uM and 1000 uM respectively

O=c1ccc2nnc([C@@H]3O[C@H](CO)[C@@H](O)[C@H]3O)n2[nH]1
inactive: Homo sapiens inactive at 100 uM and 1000 uM respectively | Semliki Forest virus inactive at 100 uM and 1000 uM respectively | L1210 inactive at 100 uM and 1000 uM respectively | CCRF-CEM inactive at 100 uM and 1000 uM respectively | Visna-maedi virus inactive at 100 uM and 1000 uM respectively | Human adenovirus 2 inactive at 100 uM and 1000 uM respectively | Human respirovirus 3 inactive at 100 uM and 1000 uM respectively | Influenza A virus inactive at 100 uM and 1000 uM respectively | Human rhinovirus 1A inactive at 100 uM and 1000 uM respectively | Human alphaherpesvirus 2 inactive at 100 uM and 1000 uM respectively

Nc1ccnn2c([C@@H]3O[C@H](CO)[C@@H](O)[C@H]3O)nnc12
inactive: Homo sapiens inactive at 100 uM and 1000 uM respectively | Semliki Forest virus inactive at 100 uM and 1000 uM respectively | L1210 inactive at 100 uM and 1000 uM respectively | CCRF-CEM inactive at 100 uM and 1000 uM respectively | Visna-maedi virus inactive at 100 uM and 1000 uM respectively | Human adenovirus 2 inactive at 100 uM and 1000 uM respectively | Human respirovirus 3 inactive at 100 uM and 1000 uM respectively | Influenza A virus inactive at 100 uM and 1000 uM respectively | Human rhinovirus 1A inactive at 100 uM and 1000 uM respectively | Human alphaherpesvirus 2 inactive at 100 uM and 1000 uM respectively

Nc1cnn2c([C@@H]3O[C@H](CO)[C@@H](O)[C@H]3O)nnc2c1
inactive: Homo sapiens inactive at 100 uM and 1000 uM respectively | Semliki Forest virus inactive at 100 uM and 1000 uM respectively | L1210 inactive at 100 uM and 1000 uM respectively | CCRF-CEM inactive at 100 uM and 1000 uM respectively | Visna-maedi virus inactive at 100 uM and 1000 uM respectively | Human adenovirus 2 inactive at 100 uM and 1000 uM respectively | Human respirovirus 3 inactive at 100 uM and 1000 uM respectively | Influenza A virus inactive at 100 uM and 1000 uM respectively | Human rhinovirus 1A inactive at 100 uM and 1000 uM respectively | Human alphaherpesvirus 2 inactive at 100 uM and 1000 uM respectively

Nc1cnn2c([C@@H]3O[C@H](CO)[C@@H](O)[C@H]3O)nnc2c1Cl
inactive: Homo sapiens inactive at 100 uM and 1000 uM respectively | Semliki Forest virus inactive at 100 uM and 1000 uM respectively | L1210 inactive at 100 uM and 1000 uM respectively | CCRF-CEM inactive at 100 uM and 1000 uM respectively | Visna-maedi virus inactive at 100 uM and 1000 uM respectively | Human adenovirus 2 inactive at 100 uM and 1000 uM respectively | Human respirovirus 3 inactive at 100 uM and 1000 uM respectively | Influenza A virus inactive at 100 uM and 1000 uM respectively | Human rhinovirus 1A inactive at 100 uM and 1000 uM respectively | Human alphaherpesvirus 2 inactive at 100 uM and 1000 uM respectively

Nc1ccc2nnc([C@@H]3O[C@H](CO)[C@@H](O)[C@H]3O)n2n1
inactive: Homo sapiens inactive at 100 uM and 1000 uM respectively | Semliki Forest virus inactive at 100 uM and 1000 uM respectively | L1210 inactive at 100 uM and 1000 uM respectively | CCRF-CEM inactive at 100 uM and 1000 uM respectively | Visna-maedi virus inactive at 100 uM and 1000 uM respectively | Human adenovirus 2 inactive at 100 uM and 1000 uM respectively | Human respirovirus 3 inactive at 100 uM and 1000 uM respectively | Influenza A virus inactive at 100 uM and 1000 uM respectively | Human rhinovirus 1A inactive at 100 uM and 1000 uM respectively | Human alphaherpesvirus 2 inactive at 100 uM and 1000 uM respectively

Nc1c(Cl)cnn2c([C@@H]3O[C@H](CO)[C@@H](O)[C@H]3O)nnc12
inactive: Homo sapiens inactive at 100 uM and 1000 uM respectively | Semliki Forest virus inactive at 100 uM and 1000 uM respectively | L1210 inactive at 100 uM and 1000 uM respectively | CCRF-CEM inactive at 100 uM and 1000 uM respectively | Visna-maedi virus inactive at 100 uM and 1000 uM respectively | Human adenovirus 2 inactive at 100 uM and 1000 uM respectively | Human respirovirus 3 inactive at 100 uM and 1000 uM respectively | Influenza A virus inactive at 100 uM and 1000 uM respectively | Human rhinovirus 1A inactive at 100 uM and 1000 uM respectively | Human alphaherpesvirus 2 inactive at 100 uM and 1000 uM respectively
